According to paper PMC4643876, “Picomolar Inhibition of Plasmepsin V, an Essential Malaria Protease, Achieved Exploiting the Prime Region” (PLoS ONE, 2015):
“And” between values parts separate entries of the source, which are not always exact repeats. Identical values can stand only once.

Assays:
[1] = system: clone G6 (PmV knock-down); assay: Parasite growth inhibition, clone G6 (PmV-GFP-DD, PmV knock-down); settings: clone G6, absence of Shield-1
Description: (§1) Growth impairment of parasites in culture was tested as follows. Asynchronous erythrocyte cultures of Plasmodium falciparum strain 3D7 were initiated at a starting parasitemia of 0.2–0.5% in the presence of titration curves of the PmV inhibitors generated in this work. […] Cultures, live or fixed, were analyzed at day 3 and/or 4 after initiation, approximately~ 2 cell cycles of 3D7 strain. Parasitemia was measured by flow cytometry analysis of parasitized cells stained with 0.4 μg/ml Acridine Orange or 1 μM Topro 3 (Life Technology Invitrogen), using BD Fortessa or FACS Calibur instruments.
(B) Growth inhibition curves of parasites expressing different levels of PmV: 3D7 (blue dots and line), DC6 (green dots and line), G6 (PmV knock-down) (red dots and line) and #3 (Overexpressing PmV) (purple dots and line) were analysed in parallel. Growth inhibition was measured in triplicates. Dots represent actual data, lines the sigmoidal fitting obtained by non-linear regression analysis. […] Error bars show the standard deviation of the data.

Plasmepsin V (PmV) = molecular target: T1, Plasmepsin V (PmV) (Plasmodium falciparum, UniProt Q8I6Z5); assay: PmV inhibition, fluorimetric PExEl cleavage assay; type: biochemical; settings: for IC50: 3 μM HRPII-PExEl substrate, averages of not less than three inhibition curves, read-out: IC50
T1 construct: PmV was purified directly from parasites; made in house
T1 sequence (Q8I6Z5 whole entry): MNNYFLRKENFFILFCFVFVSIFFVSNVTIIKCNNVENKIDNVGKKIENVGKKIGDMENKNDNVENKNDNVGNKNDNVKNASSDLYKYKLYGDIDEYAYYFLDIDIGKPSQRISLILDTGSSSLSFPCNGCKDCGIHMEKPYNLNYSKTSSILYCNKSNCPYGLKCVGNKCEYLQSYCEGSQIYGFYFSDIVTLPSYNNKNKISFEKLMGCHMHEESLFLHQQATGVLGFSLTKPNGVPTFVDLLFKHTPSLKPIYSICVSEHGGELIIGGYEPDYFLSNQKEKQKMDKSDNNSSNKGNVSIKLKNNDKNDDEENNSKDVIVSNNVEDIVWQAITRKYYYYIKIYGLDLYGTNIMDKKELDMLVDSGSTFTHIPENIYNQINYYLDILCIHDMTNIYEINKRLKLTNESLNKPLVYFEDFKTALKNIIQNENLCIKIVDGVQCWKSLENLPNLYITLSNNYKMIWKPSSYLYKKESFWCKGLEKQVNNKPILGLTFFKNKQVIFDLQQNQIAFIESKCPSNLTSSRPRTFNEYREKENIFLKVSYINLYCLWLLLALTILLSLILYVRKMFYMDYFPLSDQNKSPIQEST
Description: Saponin was added to culture to a final 0.05%; parasites were recovered via centrifugation at 4°C after 5 min of incubation on ice; parasite pellets were then washed twice in cold PBS and either immediately lysed or stored at -80°C until lysis. Parasites were lysed via three pulses of ultra-sonication of 10 sec duration, in PBS containing 0.5% Triton-X100 (TX-100). […] Quick washes of the resin were performed either in batches, or over columns, to remove unbound cellular material (four with ice-cold 0.5% TX-100 in PBS and a final one with cold PBS). Resin-bound PmV was stored in PBS at 4°C and used within 2–3 weeks, larger batches had Glycerol added to them, up to 10%, and were stored at -20°C for up to 5 months. […] Quality and purity of PmV batches were routinely confirmed by protein electrophoresis. Quantification of PmV was performed via densitometry analysis of stained protein SDS-PAGE gels relative to BSA standard curves.
PExEl cleavage activity was monitored by fluorimetric measurement of PExEl cleavage, as previously reported. […] PmV activity was performed at 37°C in 50 mM Tris-Maleate, pH 6.5, 50 mM NaCl, 0.05% TX-100, 2 mM DTT. Assays were routinely conducted in triplicate. Bead-bound enzyme was added to the reaction using ‘end-cut’ micropipette tips in order to facilitate sampling the suspension.
Inhibitory activities were measured in the presence of a substrate concentration of 3 μM by serial dilution of each compound in triplicates. […] Titration curves of the inhibitors were routinely composed of eleven points from 10 μM to 0.1 pM. PmV concentration was kept in the order of low picomolar (≤10 pM). […] Analysis of the half inhibitory activity (IC50) was performed by sigmoidal interpolation of the starting velocities of the hydrolytic reactions for each condition. Starting velocities were calculated on the initial linear range of the product progression curves. […] Data are presented with error bars indicating the standard deviation of three independent activity curves.

[2] = system: clone #3 (Overexpressing PmV); assay: Parasite growth inhibition, clone #3 (overexpressing PmV-GFP)
Description: as §1
(§2) DC6 clone expresses PmV-GFP chimera under regulation of the native promoter [15]; G6 clone, the PmV-GFP-DD chimera under regulation of the native promoter (this paper) and #3 clone (episomally expressing PmV-GFP chimera under Hsp86-5', a strong and constitutive promoter) [15]. […] (B) Growth inhibition curves of parasites expressing different levels of PmV: 3D7 (blue dots and line), DC6 (green dots and line), G6 (PmV knock-down) (red dots and line) and #3 (Overexpressing PmV) (purple dots and line) were analysed in parallel. Growth inhibition was measured in triplicates. Dots represent actual data, lines the sigmoidal fitting obtained by non-linear regression analysis. […] Error bars show the standard deviation of the data.

HRPII PExEl processing = assay: HRPII PExEl processing, western blot; type: cell-based, Plasmodium falciparum; settings: 20 μM, about 27 h, 3D7
Description: Protein analyses to detect PmV, HRPII and BiP via stained protein gels and blots, densitometry, antibody detection or HRP-conjugated Streptavidin, were conducted as previously described.
Fig 16 Inhibition results in impairment of the PExEl secretion. (A) Microscopy analysis of the distribution of the PExEl-export fluorescent probe. Live parasites expressing HRPII-GFP, used as a probe for PExEl secretion, are imaged in the presence of Hoechst nuclear staining. Bright field (grey scale), nuclei (blue channel), HRPII-GFP (green) and the merged image of the fluorescent channels are presented from left to right. (panel a) untreated culture; (b) mock DMSO-treated culture; (c-f) culture treated with 20 μM 29 solubilized in DMSO (c) mid ring, (d) late-ring, (e) early-trophozoite, (f) late-trophozoite. Bar is 2 μm. Impairment of HRPII-GFP PExEl-dependent export is observed in these representative images of live parasites and the GFP signal appears concentrated in regions of immediate proximity to the nuclei. […] (B) HRPII PExEl processing is inhibited by Compound 29. Western blot analysis of HRPII contained in parasites after saponin treatment. Arrows show the pro-form (p) and the mature (m) protein HRPII. 3D7 culture was incubated as described in Materials and Methods with 20 μM Compound 29 for about 27 h.

[3] = system: Plasmodium falciparum strain 3D7; assay: Parasite growth inhibition by flow cytometry, strain 3D7; type: cell-based
clone DC6 = assay: Parasite growth inhibition, clone DC6 (PmV-GFP, native promoter)
Description: as §1, §2

[4] = system: HRPII-GFP PExEl-dependent secretion; assay: In vivo inhibition of PExEl export, live microscopy of HRPII-GFP clone; type: cell-based, Plasmodium falciparum; settings: 20 μM, 27 h, ring to trophozoite stages
Description: Parasites were imaged live or fixed. Fixation in 4% formaldehyde and 0.0075% glutaraldehyde, cell permeabilization, antibody incubation, and mounting were as previously described. Before imaging of HRPII-GFP clone, we treated with Compound 29 highly synchronized parasites at late trophozoite stage with inhibitors for 27 h, and then analyzed the distribution of the exported probe in newly invaded red blood cells. Images were acquired using a fluorescence microscope (BX51 Olympus). Live parasites were counter-stained using the nuclear dye Hoechst 33342 (Life Technologies—Molecular Probes).
Fig 16 Inhibition results in impairment of the PExEl secretion. (A) Microscopy analysis of the distribution of the PExEl-export fluorescent probe. Live parasites expressing HRPII-GFP, used as a probe for PExEl secretion, are imaged in the presence of Hoechst nuclear staining. Bright field (grey scale), nuclei (blue channel), HRPII-GFP (green) and the merged image of the fluorescent channels are presented from left to right. (panel a) untreated culture; (b) mock DMSO-treated culture; (c-f) culture treated with 20 μM 29 solubilized in DMSO (c) mid ring, (d) late-ring, (e) early-trophozoite, (f) late-trophozoite. Bar is 2 μm. […]

[5] = pH 7.4
PmV = settings: different substrate at […], different buffer; ref [19], [20]; read-out: IC50, published value; cited from earlier work

CC(C)C[C@H](NC(=O)[C@@H](N)CCCCN)C(=O)N[C@@H](CC(C)C)C(O)CN[C@@H](C)C(=O)N[C@@H](CCC(=O)O)C(N)=O (mixture of isomers) [Compound 29] showed an IC20 [1] of 7.68 µM, an IC50 [1] of 12.5 µM and an IC80 [1] of 20.2 µM. The “IC50 increase compared to Compound 13a” value (Plasmepsin V (PmV)) was 8 fold, the Ki (Plasmepsin V (PmV)) was 1.06 µM and the IC50 (Plasmepsin V (PmV)) was 1.97 µM. The IC20 [2] was 25.1 µM, the IC50 [2] was 27.5 µM and the IC80 [2] was 30.1 µM. The “effect on natural processing of HRPII” value (HRPII PExEl processing) was “inhibited”, the LD50 growth inhibition ([3]; asynchronous 3D7 cultures, about 4 days, 0.195–200 μM, flow cytometry) was ~ 15 μM and 15.2 μM and the IC20 ([3]; strain 3D7, parental line) was 14 µM. It also gave an IC50 ([3]; strain 3D7, parental line) of 17.9 µM, an IC80 ([3]; strain 3D7, parental line) of 22.7 µM and an IC20 (clone DC6) of 12.8 µM. For the same compound, the IC50 (clone DC6) was 18.5 µM, the IC80 (clone DC6) was 27.1 µM and the “effect on HRPII-GFP PExEl-dependent secretion” value [4] was “impairment of HRPII-GFP PExEl-dependent secretion was observed”. The logD [5] was -5.99.
In the case of CC(C)C[C@H](NC(=O)[C@@H](NC(=O)[C@H](CCCNC(=N)N)NS(=O)(=O)Cc1ccccc1)C(C)C)[C@@H](O)CC(=O)NCCc1ccccc1 [WEHI916, reference compound], the IC50 (Plasmepsin V (PmV)) is listed as 0.0324 µM and the IC50 (PmV) is listed as 0.019 to 0.02 µM.
